Values joined by “and” are separate entries in the source; they are usually repeats but may differ in a detail not shown here. Equal entries are not always repeated. Toxic doses and inconclusive results are not listed.
Test system: P388 leukemia ip, CD2F1 mice, survival T/C
Test: NCI In Vivo Anticancer Drug Screen. Data for tumor model P388 Leukemia (intraperitoneal) in CD2F1 (CDF1) mice
Conditions: endpoint: median survival time, higher = longer survival
In short: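 Mice carrying the transplanted tumor received test compound or vehicle. Survival was recorded in each group, and the value is the treated-group measurement divided by that of the vehicle-treated control group.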

[1] = dose: 50.0 mg/kg/injection, schedule: Q01DX005 (ip), vehicle: Klucel (hydroxypropylcellulose) (HPC)
[2] = dose: 100.0 mg/kg/injection, schedule: Q01DX005 (ip), vehicle: Klucel (hydroxypropylcellulose) (HPC)
[3] = dose: 200.0 mg/kg/injection, schedule: Q01DX005 (ip), vehicle: Klucel (hydroxypropylcellulose) (HPC)
[4] = dose: 50.0 mg/kg/injection, schedule: Q01DX009 (ip), vehicle: saline
[5] = dose: 100.0 mg/kg/injection, schedule: Q01DX009 (ip), vehicle: saline
[6] = dose: 200.0 mg/kg/injection, schedule: Q01DX009 (ip), vehicle: saline
[7] = dose: 60.0 mg/kg/injection, schedule: Q01DX005 (ip), vehicle: saline with Tween-80
[8] = dose: 120.0 mg/kg/injection, schedule: Q01DX005 (ip), vehicle: saline with Tween-80
[9] = dose: 240.0 mg/kg/injection, schedule: Q01DX005 (ip), vehicle: saline with Tween-80
[10] = dose: 60.0 mg/kg/injection, schedule: Q01DX005 (ip), vehicle: Klucel (hydroxypropylcellulose) (HPC)
[11] = dose: 120.0 mg/kg/injection, schedule: Q01DX005 (ip), vehicle: Klucel (hydroxypropylcellulose) (HPC)
[12] = dose: 240.0 mg/kg/injection, schedule: Q01DX005 (ip), vehicle: Klucel (hydroxypropylcellulose) (HPC)
[13] = dose: 50.0 mg/kg/injection, schedule: Q01DX005 (ip), vehicle: saline with Tween-80
[14] = dose: 100.0 mg/kg/injection, schedule: Q01DX005 (ip), vehicle: saline with Tween-80
[15] = dose: 200.0 mg/kg/injection, schedule: Q01DX005 (ip), vehicle: saline with Tween-80
[16] = dose: 50.0 mg/kg/injection, schedule: Q01DX009 (ip), vehicle: saline with Tween-80
[17] = dose: 25.0 mg/kg/injection, schedule: Q01DX005 (ip), vehicle: saline with Tween-80

## Cc1ccc(F)cc1NC(=S)NN
dose: 7.5 mg/kg/injection, schedule: Q01DX005 (ip), vehicle: Klucel (hydroxypropylcellulose) (HPC)
  T/C: 100 % of control
dose: 15.0 mg/kg/injection, schedule: Q01DX005 (ip), vehicle: Klucel (hydroxypropylcellulose) (HPC)
  T/C: 99 % of control
dose: 30.0 mg/kg/injection, schedule: Q01DX005 (ip), vehicle: Klucel (hydroxypropylcellulose) (HPC)
  T/C: 91 % of control

## COC(=O)C1=C(C(=O)OC)C2(c3ccccc3-c3ccccc32)C2C=CC=CN12 (stereo unspecified)
[1]
  T/C: 100 % of control
[2]
  T/C: 101 % of control
[3]
  T/C: 100 % of control

## O=C(C1=C(Nc2ccccc2)CCC1)c1ccccc1
[4]
  T/C: 116 % of control
[5]
  T/C: 106 % of control
[6]
  T/C: 106 % of control

## CSc1nc(NC2OC(COC(C)=O)C(OC(C)=O)C(OC(C)=O)C2OC(C)=O)c(N=C(C)C(C)=O)c(=O)[nH]1 (stereo unspecified)
[7]
  T/C: 100 % of control
[8]
  T/C: 96 % of control
[9]
  T/C: 86 % of control

## OC(Cc1nc2ccccc2s1)c1ccco1 (stereo unspecified)
[10]
  T/C: 101 % of control
[11]
  T/C: 103 % of control
[12]
  T/C: 103 % of control

## N=C1N=Nc2nc(C(C(=O)c3cccs3)c3nc4n(c3O)C(=N)N=N4)c(O)n21 (stereo unspecified)
[7]
  T/C: 97 % of control
[8]
  T/C: 100 % of control
[9]
  T/C: 106 % of control

## CN1C(=O)C23SSC1(C)C(=O)N2c1ccccc1C3(C)C (stereo unspecified)
dose: 12.5 mg/kg/injection, schedule: Q01DX009 (ip), vehicle: suspension in saline
  T/C: 95 % of control
dose: 25.0 mg/kg/injection, schedule: Q01DX009 (ip), vehicle: suspension in saline
  T/C: 91 % of control
[4]
  T/C: 95 % of control

## CC(=O)Oc1ccc2ccc3nonc3c2c1
[13]
  T/C: 99 % of control
[14]
  T/C: 99 % of control
[15]
  T/C: 94 % of control

## Cc1cccc(Nc2ccccc2C(=O)O)c1C
dose: 6.25 mg/kg/injection, schedule: Q01DX009 (ip), vehicle: saline with Tween-80
  T/C: 103 % of control
dose: 12.5 mg/kg/injection, schedule: Q01DX009 (ip), vehicle: saline with Tween-80
  T/C: 98 % of control
dose: 25.0 mg/kg/injection, schedule: Q01DX009 (ip), vehicle: saline with Tween-80
  T/C: 111 % of control
[16]
  T/C: 101 % of control

## CSC1=Nc2cc3c(cc2C(=O)N2CC(OC(C)=O)CC12)OCO3 (stereo unspecified)
[13]
  T/C: 98 % of control
[14]
  T/C: 99 % of control
[15]
  T/C: 97 % of control

## Cc1ccc(NP(=S)(Nc2ccc(C)cc2C)Nc2ccc(C)cc2C)c(C)c1
[10]
  T/C: 97 % of control
[11]
  T/C: 100 % of control
[12]
  T/C: 100 % of control

## CSCCC(NC(=O)C(Cl)Cl)C(=O)O (stereo unspecified)
[1]
  T/C: 100 % of control
[2]
  T/C: 96 % of control
[3]
  T/C: 100 % of control

## CCC(C)n1c(=O)cc(C)[nH]c1=O (stereo unspecified)
[4]
  T/C: 101 % of control
[5]
  T/C: 98 % of control
[6]
  T/C: 104 % of control

## CNC(=S)N/N=C/c1nccc(-c2ccccc2)c1C
dose: 200.0 mg/kg/injection, schedule: Q04DX003 (ip), vehicle: saline with Tween-80
  T/C: 107 % of control

## CC1=C(C2CO2)C(=O)C(C)=C(C2CO2)C1=O (stereo unspecified)
dose: 1.56 mg/kg/injection, schedule: Q04DX002 (ip), vehicle: Klucel (hydroxypropylcellulose) (HPC)
  T/C: 95 % of control
dose: 3.12 mg/kg/injection, schedule: Q04DX002 (ip), vehicle: Klucel (hydroxypropylcellulose) (HPC)
  T/C: 93 % of control
dose: 6.25 mg/kg/injection, schedule: Q04DX002 (ip), vehicle: Klucel (hydroxypropylcellulose) (HPC)
  T/C: 88 % of control
dose: 12.5 mg/kg/injection, schedule: Q04DX002 (ip), vehicle: Klucel (hydroxypropylcellulose) (HPC)
  T/C: 89 % of control

## CCOC(=O)/C(C#N)=C(\C)c1ccccc1
[16]
  T/C: 99 % of control

## Nc1ccc2c(C(F)(F)F)cc(=O)[nH]c2c1
[17]
  T/C: 100 % of control
[13]
  T/C: 91 % of control
[14]
  T/C: 92 % of control

## CNC=O
dose: 80.0 mg/kg/injection, schedule: Q01DX005 (ip), vehicle: water
  T/C: 108 % of control
dose: 160.0 mg/kg/injection, schedule: Q01DX005 (ip), vehicle: water
  T/C: 115 % of control
dose: 197.6 mg/kg/injection, schedule: Q01DX005 (ip), vehicle: saline
  T/C: 116 % of control
dose: 197.6 mg/kg/injection, schedule: Q01DX005 (iv), vehicle: saline
  T/C: 120 % of control
dose: 296.3 mg/kg/injection, schedule: Q01DX005 (ip), vehicle: water
  T/C: 107 % of control
dose: 296.5 mg/kg/injection, schedule: Q01DX001 (ip), vehicle: saline
  T/C: 101 % of control
dose: 296.5 mg/kg/injection, schedule: Q01DX001 (iv), vehicle: saline
  T/C: 100 % of control
dose: 320.0 mg/kg/injection, schedule: Q01DX005 (ip), vehicle: water
  T/C: 118 % of control
dose: 444.4 mg/kg/injection, schedule: Q01DX005 (ip), vehicle: water
  T/C: 122 % of control
dose: 444.5 mg/kg/injection, schedule: Q01DX001 (ip), vehicle: saline
  T/C: 104 % of control
dose: 444.5 mg/kg/injection, schedule: Q01DX001 (iv), vehicle: saline
  T/C: 103 % of control
dose: 444.5 mg/kg/injection, schedule: Q01DX001 (oral), vehicle: saline
  T/C: 103 % of control
dose: 444.5 mg/kg/injection, schedule: Q01DX009 (ip), vehicle: saline
  T/C: 98 % of control
dose: 444.5 mg/kg/injection, schedule: Q01DX009 (oral), vehicle: saline
  T/C: 173 % of control
dose: 666.7 mg/kg/injection, schedule: Q01DX001 (ip), vehicle: saline
  T/C: 107 % of control
dose: 666.7 mg/kg/injection, schedule: Q01DX001 (iv), vehicle: saline
  T/C: 111 % of control
dose: 666.7 mg/kg/injection, schedule: Q01DX001 (oral), vehicle: saline
  T/C: 114 % of control
dose: 666.7 mg/kg/injection, schedule: Q01DX005 (ip), vehicle: saline
  T/C: 156 % of control
dose: 666.7 mg/kg/injection, schedule: Q01DX005 (ip), vehicle: water
  T/C: 166 % of control
dose: 666.7 mg/kg/injection, schedule: Q01DX009 (ip), vehicle: saline
  T/C: 93 % of control
dose: 666.7 mg/kg/injection, schedule: Q01DX009 (oral), vehicle: saline
  T/C: 98 % of control
dose: 1000.0 mg/kg/injection, schedule: Q01DX001 (ip), vehicle: saline
  T/C: 116 % of control
dose: 1000.0 mg/kg/injection, schedule: Q01DX001 (iv), vehicle: saline
  T/C: 119 % of control
dose: 1000.0 mg/kg/injection, schedule: Q01DX001 (oral), vehicle: saline
  T/C: 116 % of control
dose: 1000.0 mg/kg/injection, schedule: Q01DX005 (iv), vehicle: saline
  T/C: 86 % of control
dose: 1000.0 mg/kg/injection, schedule: Q01DX005 (oral), vehicle: saline
  T/C: 95 % of control
dose: 1000.0 mg/kg/injection, schedule: Q01DX009 (oral), vehicle: saline
  T/C: 98 % of control
dose: 1280.0 mg/kg/injection, schedule: Q01DX005 (ip), vehicle: water
  T/C: 161 % of control
dose: 1500.0 mg/kg/injection, schedule: Q01DX001 (ip), vehicle: saline
  T/C: 120 % of control
dose: 1500.0 mg/kg/injection, schedule: Q01DX005 (oral), vehicle: saline
  T/C: 86 % of control

## CC(=O)C(/C=N\N=C(/C)c1cn[nH]c1C)=C(/C)O
[10]
  T/C: 96 % of control
[11]
  T/C: 92 % of control
[12]
  T/C: 89 % of control

## CN1CCC(c2ccccc2)(C(O)(c2ccccc2)c2ccccc2)CC1
dose: 12.5 mg/kg/injection, schedule: Q01DX005 (ip), vehicle: saline with Tween-80
  T/C: 90 % of control
[17]
  T/C: 100 % of control
[13]
  T/C: 100 % of control and 111 % of control
[14]
  T/C: 107 % of control

## O=C1C2C(C(=O)N1c1ccccc1)C1(c3cccnc3)NC(=O)C2(Cc2cccnc2)c2ccccc21 (stereo unspecified)
dose: 15.0 mg/kg/injection, schedule: Q01DX005 (ip), vehicle: saline with Tween-80
  T/C: 104 % of control
dose: 30.0 mg/kg/injection, schedule: Q01DX005 (ip), vehicle: saline with Tween-80
  T/C: 100 % of control and 96 % of control
[7]
  T/C: 104 % of control and 88 % of control and 91 % of control
[8]
  T/C: 88 % of control
[9]
  T/C: 86 % of control

Source: PubChem BioAssay AID330 (DTP/NCI, 2004)
